We go through ten molecules from ChEMBL document CHEMBL1201862, “PubChem BioAssay data set” (2004).

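48-hour exposure; five concentrations; linearly interpolated endpoints. Here, GI50 denotes the concentration required for 50% inhibition of growth.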 Calls of active or inactive are those of the source. Rule as the data show it: active = GI50 up to about 1.1 µM and inactive = higher. Where only a bound is given, the exact number is not on record here.

Some test systems named below: RPMI-8226; Hs-578T; NCI-H23; CAKI-1; NCI/ADR-RES; NCI-H522; MDA-MB-435; A498; SK-OV-3; M14; UACC-257; PC-3; EKVX; MOLT-4; NCI-H226; OVCAR-3; SN12C; UACC-62; SR; MCF7.
Common to all, as to assay: NCI anticancer screen, dose series, 48 h

In the case of `C=C[C@@]1(C)CC(=O)[C@]2(O)[C@@]3(C)[C@@H](O)CCC(C)(C)[C@@H]3[C@H](O)[C@@H](OC(C)=O)[C@@]2(C)O1`, the GI50 in the assay on RPMI-8226 is 18.7 µM (inactive); in the assay with Hs-578T it was 70.1 µM (inactive); with NCI-H23, > 100 µM (inactive); with CAKI-1, 27.1 µM (inactive); with NCI/ADR-RES, > 100 µM (inactive); in the assay with NCI-H522, > 100 µM (inactive). The GI50 with MDA-MB-435 is > 100 µM (inactive); in the assay with A498, > 100 µM (inactive); in the assay with SK-OV-3 it was 95.1 µM (inactive); in the assay on M14, > 100 µM (inactive); in the assay on UACC-257, > 100 µM (inactive); with PC-3, > 100 µM (inactive). Moreover, the GI50 was > 100 µM (inactive) in the assay on EKVX; 30.2 µM (inactive) in the assay with MOLT-4; > 100 µM (inactive) in the assay with NCI-H226; > 100 µM (inactive) with OVCAR-3; 57.7 µM (inactive) in the assay on SN12C; > 100 µM (inactive) with UACC-62. Besides, the values for the GI50 with SR and with MCF7 were > 100 µM (inactive) and 22.1 µM (inactive), respectively.
Take `C/C(=C(/C)c1ccc(O)cc1)c1ccc(O)cc1` [DIMETHYLSTILBESTROL]: the GI50 with RPMI-8226 was 34.9 µM (inactive); in the assay on Hs-578T, 24.5 µM (inactive); in the assay with NCI-H23 it was 43.6 µM (inactive); in the assay with CAKI-1, 37 µM (inactive); with NCI/ADR-RES it was 45.5 µM (inactive); in the assay on NCI-H522 it was > 100 µM (inactive). Besides, the GI50 was 37.9 µM (inactive) in the assay on MDA-MB-435; 54.6 µM (inactive) in the assay with A498; > 100 µM (inactive) in the assay on SK-OV-3; 45.3 µM (inactive) in the assay on M14; 43.4 µM (inactive) in the assay on UACC-257; 41.3 µM (inactive) with PC-3. The GI50 was 8.95 µM (inactive) in the assay with EKVX; 45.5 µM (inactive) in the assay with MOLT-4; 36.7 µM (inactive) in the assay on NCI-H226; 46.6 µM (inactive) with OVCAR-3; 58.6 µM (inactive) in the assay with SN12C; 23.7 µM (inactive) with UACC-62. For the same molecule, the GI50 in the assay with SR was 40.1 µM (inactive); in the assay on MCF7 it was 39.5 µM (inactive).
Turning to `CCOC(=O)C1(Cc2ccc3c(c2)CCC3)Cc2cc3c(cc2C1=O)CCC3` (stereo not given), the GI50 in the assay on RPMI-8226 was 19.2 µM (inactive); with Hs-578T it was > 100 µM (inactive); with NCI-H23, 49.4 µM (inactive); in the assay on CAKI-1 it was > 46.3 µM (inactive); in the assay on NCI/ADR-RES, 36 µM (inactive); with NCI-H522, 47.8 µM (inactive). Also, the GI50 is 36.3 µM (inactive) in the assay on MDA-MB-435; > 42.7 µM (inactive) in the assay on A498; > 100 µM (inactive) in the assay on SK-OV-3; > 57.4 µM (inactive) with M14; 31.3 µM (inactive) in the assay with UACC-257; 16.1 µM (inactive) in the assay with PC-3. For the same molecule, the GI50 in the assay on EKVX is 97.5 µM (inactive); in the assay on MOLT-4, 11.9 µM (inactive); with NCI-H226 it was > 83 µM (inactive); in the assay with OVCAR-3, > 100 µM (inactive); in the assay with SN12C, 66.2 µM (inactive); in the assay with UACC-62 it was > 100 µM (inactive). Also, the figures for the GI50 with SR and with MCF7 were 44.3 µM (inactive) and 33.7 µM (inactive), respectively.
Regarding `Cc1cc(C)c(C[C@H]2COC(=O)[C@]2(O)Cc2c(C)cc(C)cc2C)c(C)c1`, the GI50 is 25.2 µM (inactive) in the assay with RPMI-8226; 17.7 µM (inactive) in the assay with Hs-578T; 21 µM (inactive) with NCI-H23; 18.6 µM (inactive) in the assay with CAKI-1; 15.6 µM (inactive) with NCI/ADR-RES; 18.7 µM (inactive) with NCI-H522. Moreover, the GI50 in the assay with MDA-MB-435 was 18.3 µM (inactive); in the assay on A498, 14.6 µM (inactive); in the assay with SK-OV-3 it was 17.9 µM (inactive); with M14, 18.3 µM (inactive); with UACC-257 it was 17.7 µM (inactive); with PC-3 it was 15.1 µM (inactive). For the same molecule, the GI50 is 12.6 µM (inactive) with EKVX; 26.7 µM (inactive) in the assay with MOLT-4; 17 µM (inactive) with NCI-H226; 15 µM (inactive) in the assay on OVCAR-3; 19.4 µM (inactive) in the assay on SN12C; 13.7 µM (inactive) in the assay on UACC-62. The GI50 in the assay with SR was 41.5 µM (inactive); with MCF7 it was 18.1 µM (inactive).
On to `C#CCCOC(=O)c1ccccc1OC(C)=O`, for which the GI50 with RPMI-8226 was > 100 µM (inactive); with Hs-578T it was > 100 µM (inactive); in the assay on NCI-H23 it was > 100 µM (inactive); in the assay on CAKI-1 it was > 100 µM (inactive); in the assay with NCI/ADR-RES, > 100 µM (inactive); with NCI-H522, 63.7 µM (inactive). The GI50 in the assay with MDA-MB-435, in the assay on A498, with SK-OV-3, in the assay with M14, in the assay on UACC-257 and with PC-3 was > 100 µM (inactive) throughout. Besides, the GI50 in the assay with EKVX, in the assay on MOLT-4, in the assay with NCI-H226, in the assay with OVCAR-3, in the assay on SN12C and in the assay with UACC-62 was > 100 µM (inactive) throughout. Also, the GI50 in the assay on SR and in the assay on MCF7 was > 100 µM (inactive) in each case.
In the case of `COC(=O)C(CCSc1ccccc1)C(=O)OC`, the GI50 with RPMI-8226 was > 100 µM (inactive); with Hs-578T, 1.58 µM (inactive); in the assay with NCI-H23, > 100 µM (inactive); in the assay with CAKI-1, > 100 µM (inactive); in the assay on NCI/ADR-RES, > 100 µM (inactive); with NCI-H522, 93.8 µM (inactive). In addition, the GI50 in the assay with MDA-MB-435, in the assay on A498, in the assay with SK-OV-3, with M14, in the assay with UACC-257 and in the assay on PC-3 was > 100 µM (inactive) each time. Moreover, the GI50 with EKVX, in the assay on MOLT-4, with NCI-H226, in the assay with OVCAR-3, in the assay on SN12C and in the assay with UACC-62 was > 100 µM (inactive) in each case. For the same molecule, the GI50 in the assay with SR and in the assay on MCF7 was > 100 µM (inactive) each time.
Turning to `Cc1ccc([N+](=O)[O-])cc1S(=O)(=O)Nc1ccc(C2=NOC(c3ccccc3O)C2)cc1` (stereo not given), the GI50 with RPMI-8226 was 4.26 µM (inactive); in the assay with Hs-578T, 9.98 µM (inactive); with NCI-H23, 10.4 µM (inactive); in the assay with CAKI-1, 9.42 µM (inactive); in the assay with NCI/ADR-RES, 2.54 µM (inactive); in the assay on NCI-H522 it was 1.29 µM (inactive). Besides, the GI50 was 1.01 µM (active) in the assay with MDA-MB-435; 2.84 µM (inactive) with A498; 15.3 µM (inactive) with SK-OV-3; 2.19 µM (inactive) with M14; 5.97 µM (inactive) in the assay with UACC-257; 4.74 µM (inactive) in the assay on PC-3. In addition, the GI50 in the assay with EKVX is 17.1 µM (inactive); in the assay on MOLT-4, 2.76 µM (inactive); in the assay with NCI-H226, 5.82 µM (inactive); with OVCAR-3 it was 3.72 µM (inactive); with SN12C, 12.3 µM (inactive); with UACC-62, 2.97 µM (inactive). The GI50 in the assay with SR is 0.577 µM (active); in the assay with MCF7 it was 3.33 µM (inactive).
On to `O=C(Nc1cccc(-c2cn3ccccc3n2)c1)c1ccncc1`, for which the GI50 is 17.1 µM (inactive) in the assay on RPMI-8226; 38.1 µM (inactive) in the assay on Hs-578T; 23.6 µM (inactive) in the assay on NCI-H23; 31.3 µM (inactive) with CAKI-1; 21.7 µM (inactive) with NCI/ADR-RES; 23.6 µM (inactive) in the assay on NCI-H522. In addition, the GI50 is 31.9 µM (inactive) in the assay with MDA-MB-435; 76 µM (inactive) in the assay on A498; 70.8 µM (inactive) in the assay with SK-OV-3; 33.7 µM (inactive) in the assay on M14; 29.9 µM (inactive) with UACC-257; 35.9 µM (inactive) in the assay with PC-3. The GI50 is 60.1 µM (inactive) in the assay on EKVX; 21.7 µM (inactive) in the assay on MOLT-4; 56.5 µM (inactive) in the assay on NCI-H226; 35.1 µM (inactive) in the assay with OVCAR-3; 32.7 µM (inactive) with SN12C; 20.9 µM (inactive) in the assay on UACC-62. In addition, the values for the GI50 with SR and in the assay on MCF7 were 24 µM (inactive) and 31.6 µM (inactive), respectively.
Take `O=C1CSC(c2cccs2)N1c1nc2cc3sc(N4C(=O)CSC4c4cccs4)nc3cc2s1` (stereo not given): the GI50 was > 50 µM (inactive) with RPMI-8226; > 50 µM (inactive) in the assay with Hs-578T; 28.8 µM (inactive) in the assay on NCI-H23; 47.4 µM (inactive) with CAKI-1; 43.1 µM (inactive) with NCI/ADR-RES; 13.2 µM (inactive) with NCI-H522. Further, the GI50 with MDA-MB-435 was > 50 µM (inactive); in the assay on A498, > 50 µM (inactive); in the assay with SK-OV-3, > 50 µM (inactive); in the assay with M14 it was > 50 µM (inactive); in the assay with UACC-257 it was > 50 µM (inactive); in the assay with PC-3 it was 47.9 µM (inactive). The GI50 in the assay with EKVX was 16 µM (inactive); with MOLT-4, 6.4 µM (inactive); in the assay with NCI-H226, 6.38 µM (inactive); in the assay with OVCAR-3 it was > 50 µM (inactive); in the assay with SN12C it was 26.4 µM (inactive); in the assay with UACC-62, > 50 µM (inactive). Also, the GI50 was 5.45 µM (inactive) in the assay with SR and 15.9 µM (inactive) in the assay on MCF7.
As to `c1ccc(NNC2=NCCN2)cc1`, the GI50 in the assay with RPMI-8226, in the assay on Hs-578T, with NCI-H23, in the assay with CAKI-1, in the assay with NCI/ADR-RES and in the assay with NCI-H522 was > 100 µM (inactive) in each case. The GI50 with MDA-MB-435, with A498, in the assay with SK-OV-3, in the assay with M14, with UACC-257 and in the assay on PC-3 was > 100 µM (inactive) in each case. The GI50 with EKVX, with MOLT-4, with NCI-H226, with OVCAR-3, in the assay on SN12C and in the assay with UACC-62 was > 100 µM (inactive) in each case. In addition, the GI50 with SR and in the assay with MCF7 was > 100 µM (inactive) throughout.
